Measurements: patent publication US11624022B2, “Preparation method for the plant-based nano corrosion inhibition bactericide for oilfield and application thereof” (Southwest Petroleum University, priority 2021, dated 2023)

Legend:
[1] = Corrosion inhibition performance test (static uniform corrosion, SY/T 5273-2014); settings: 60 mg/L; N80 steel, corrosive solution pH 6.5, 37° C., 14 days
Protocol: The corrosive solution of 1 L was prepared, the pH was adjusted to 6.5, and the temperature was 37° C. at a normal pressure. The N80 steel specimens were processed with specifications of 30*15*3 and placed in corrosive solution. Three specimens were placed in each vial and different corrosion inhibitors were added respectively. The experiment lasted for 14 days.
After the test, the specimens were cleaned with stripping solution (100 ml hydrochloric acid+10 g hexamethylenetetramine+900 mL deionized water), then dehydrated by ethanol and blow-dried with N2. The determination method for static uniform corrosion inhibition rate was evaluated with referring to the Performance Index and Evaluation Method of Corrosion Inhibitor for Oilfield Produced Water Treatment (SY/T 5273-2014), the oil and gas industry standard of the People's Republic of China. The formulas of uniform corrosion rate and corrosion inhibition efficiency are as follows:
The corrosion inhibition test results are shown in Table 3, in which the corrosion inhibitors 1, 2 and 3 commonly used in oilfields are respectively the lauric acid imidazoline, abietic acid imidazoline and tetradecyl trimethyl ammonium bromide.

[2] = tested on: sulfate reducing bacteria (SRB); test: Sterilization performance test (serial dilution counting of SRB); assay type: cell-based; settings: 60 mg/L, counted 24 hours later; for Number of SRB: no bactericide 2500000
Protocol: Before the test, all devices and glass containers were sterilized for 20 min at 121° C. The SRB strain was isolated from the formation water of an injection well in a shale gas field in China. SRB liquid medium was prepared according to NACE TMO194-94 standard.
The composition of the medium is as follows: Ig yeast powder, 0.1 g ascorbic acid, 0.2 g MgSO4·7H2O, 0.01 g K2HPO4, 10 g NaCl, 0.2 g (NH4)2Fe(SO4)2·6H2O, 4 mL sodium lactate, and 1000 mL deionized water. A portable pressure steam disinfection pot was used to sterilize the bacteria in the prepared medium. In the sterilization process, the temperature was kept at 120° C. for 15 min. It was then deoxidized with N2 for 2 h. 10% SRB was inoculated into the medium and placed in an incubator at 37° C. After 5 days, the number of SRB reached the peak value and remained stable.
Different bactericides were added into the cultured bacteria solution of 200 mL and counted 24 hours later.
Serial dilution method (triple repetition) was taken for the counting of SRB. Totally 10 dilution levels were provided. At each dilution level, there were three identical vials filled with 9 mL SRB medium. The measured sample of 1 mL was injected into a vial at the Level 0 and then shaken up. The 1 mL solution from the vial at the Level 0 was injected into a vial at the Level 1. The syringe for sampling the liquid each time was disposable to avoid affecting the final results. Similarly, the sample was diluted until the dilution reached Level 9. All vials were incubated at 35° C. for 14 days at a constant temperature.
The growth index should be determined according to the following principles: three dilution levels were selected from the dilution level at which negative vials appeared, and the number of positive vials was counted for each dilution level to obtain the index (When all the vials in a certain grade are negative, the previous grade is counted). The growth index (summarized according to 5.6.5.3 in SY/T 5329-1994) is obtained by multiplying the dilution factor 10^n of water sample (n is the number of dilutions before the index position). Check the corresponding bacteria count table and substitute the bacterial count detected by the index to get the content of this kind of bacteria in the water sample (Nr./mL).
The test results are shown in Table 1, in which the vials 1 to 10 are filled with 9 mL SRB medium (10^7). The dilution levels are numbered from Lev. 0 to Lev. 9. Take the measured sample of 1 mL into the Vial 1, indicating Level 0; take a new syringe and take 1 mL from Vial 1 to Vial 2, indicating Level 1; take a new syringe and take 1 mL from Vial 2 to Vial 3, indicating […]; the rest can be done in the same manner until 1 mL is taken from Vial 9 to Vial 10, indicating Level 9. “+” represents positive vial, and “−” represents negative vial.

Compound	Corrosion inhibition efficiency [1]	Growth index [2]	Sterilization rate [2]	Number of SRB [2]
CCCCCCCCCCCCCC[N+](C)(C)C.[Br-] [Tetradecyl trimethyl ammonium bromide, tetradecyl trimethyl ammonium bromide]	90.9%			
abietic acid imidazoline	93.9%			
O=CCCCC=O [Glutaraldehyde]		200	64%	900000 Nr./mL
CCCCCCCCCCCC[N+](C)(C)Cc1ccccc1.[Cl-] [Traditional bactericide 1227]		210	40%	1500000 Nr./mL
lauric acid imidazoline	93.3%			
